Experimental data published in ChEMBL document CHEMBL1255551, “Synthesis and biological evaluation of C-2 halogenated analogs of salvinorin A” (Bioorg Med Chem Lett, 2010).
pEC50, pKi: −log10 of the molar value. Active and inactive are the calls of the source. No cut-off for these calls is given here.

How the values were obtained:
[1] = molecular target: T1, Kappa-type opioid receptor (Homo sapiens, UniProt P41145); assay: Displacement of [3H]diprenorphine from human kappa opioid receptor expressed in CHO cells; assay type: cell-based
T1 sequence (P41145 whole entry): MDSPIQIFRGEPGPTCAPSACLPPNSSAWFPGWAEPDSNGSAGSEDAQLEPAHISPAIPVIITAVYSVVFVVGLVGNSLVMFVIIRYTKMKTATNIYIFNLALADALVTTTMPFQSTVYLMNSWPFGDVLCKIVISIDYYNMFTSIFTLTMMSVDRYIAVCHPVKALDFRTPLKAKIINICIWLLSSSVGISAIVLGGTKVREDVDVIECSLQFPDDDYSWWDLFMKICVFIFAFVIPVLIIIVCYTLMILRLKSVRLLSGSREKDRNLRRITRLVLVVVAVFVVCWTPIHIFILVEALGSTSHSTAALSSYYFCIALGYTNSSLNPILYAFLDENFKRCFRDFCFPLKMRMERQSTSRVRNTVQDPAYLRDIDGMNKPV

[2] = molecular target: T1, Kappa-type opioid receptor; assay: Agonist activity at human kappa opioid receptor expressed in CHO cells assessed as increase of [35S]GTPgammaS binding; assay type: functional, cell-based
[3] = molecular target: Delta-type opioid receptor (Mus musculus) (UniProt P32300); assay: Displacement of [3H]diprenorphine from mouse FLAG-tagged delta opioid receptor expressed in CHO cells at 3 uM; assay type: cell-based
Sequence of Delta-type opioid receptor (Mus musculus) (P32300 whole entry): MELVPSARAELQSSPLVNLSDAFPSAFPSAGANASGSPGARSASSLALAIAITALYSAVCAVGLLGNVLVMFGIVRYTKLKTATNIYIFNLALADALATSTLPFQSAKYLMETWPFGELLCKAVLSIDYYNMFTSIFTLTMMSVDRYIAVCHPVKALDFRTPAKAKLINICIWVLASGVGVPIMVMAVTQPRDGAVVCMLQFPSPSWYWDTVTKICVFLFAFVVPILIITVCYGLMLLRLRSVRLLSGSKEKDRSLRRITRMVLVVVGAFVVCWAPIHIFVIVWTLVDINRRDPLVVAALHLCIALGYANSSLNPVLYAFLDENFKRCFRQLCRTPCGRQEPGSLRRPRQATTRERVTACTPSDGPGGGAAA

[4] = molecular target: T1, Kappa-type opioid receptor; assay: Agonist activity at human kappa opioid receptor expressed in CHO cells assessed as increase of [35S]GTPgammaS binding at 240 nM relative to U50488H; assay type: functional, cell-based
[5] = molecular target: Mu-type opioid receptor (Rattus norvegicus) (UniProt P33535); assay: Displacement of [3H]diprenorphine from rat mu opioid receptor expressed in CHO cells at 3 uM; assay type: cell-based
Sequence of Mu-type opioid receptor (Rattus norvegicus) (P33535 whole entry): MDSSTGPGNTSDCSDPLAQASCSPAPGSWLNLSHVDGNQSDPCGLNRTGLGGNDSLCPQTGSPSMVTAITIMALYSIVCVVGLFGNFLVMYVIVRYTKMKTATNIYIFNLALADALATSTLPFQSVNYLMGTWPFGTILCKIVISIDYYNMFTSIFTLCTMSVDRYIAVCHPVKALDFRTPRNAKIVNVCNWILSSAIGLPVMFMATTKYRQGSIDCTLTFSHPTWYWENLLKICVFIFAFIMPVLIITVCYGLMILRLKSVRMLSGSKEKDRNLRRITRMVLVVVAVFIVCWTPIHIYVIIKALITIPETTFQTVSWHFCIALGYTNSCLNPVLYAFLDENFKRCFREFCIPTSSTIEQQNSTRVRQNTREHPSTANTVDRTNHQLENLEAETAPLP

[6] = molecular target: T1, Kappa-type opioid receptor; assay: Displacement of [3H]diprenorphine from human kappa opioid receptor expressed in CHO cells at 3 uM; assay type: cell-based

Row | Compound | pKi [1] | pEC50 [2] | Activity [3] | Emax [4] | Activity [5] | inhibition [6]
1 | COC(=O)[C@@H]1CC(C(=O)O)C(=O)[C@H]2[C@@]1(C)CC[C@H]1C(=O)O[C@H](c3ccoc3)C[C@]21C (stereo partly drawn) | 7.61 | 7.08 | inactive | 103% | inactive | > 50%
2 | COC(=O)[C@@H]1C[C@H](Br)C(=O)[C@H]2[C@@]1(C)CC[C@H]1C(=O)O[C@H](c3ccoc3)C[C@]21C | 6.37 | 5.71 | inactive | 87% | inactive | > 50%
3 | COC(=O)[C@@H]1C[C@@H](Br)C(=O)[C@H]2[C@@]1(C)CC[C@H]1C(=O)O[C@H](c3ccoc3)C[C@]21C | 7.37 | 6.55 | inactive | 90% | inactive | > 50%
4 | COC(=O)[C@@H]1C[C@H](F)C(=O)[C@H]2[C@@]1(C)CC[C@H]1C(=O)O[C@H](c3ccoc3)C[C@]21C | < 6.00 | – | inactive | – | inactive | > 50%
5 | COC(=O)[C@@H]1C[C@H](OC(C)=O)C(=O)[C@H]2[C@@]1(C)CC[C@H]1C(=O)O[C@H](c3ccoc3)C[C@]21C | – | – | inactive | – | inactive | > 50%
6 | COC(=O)[C@@H]1C[C@@H](F)C(=O)[C@H]2[C@@]1(C)CC[C@H]1C(=O)O[C@H](c3ccoc3)C[C@]21C | 6.71 | 6.27 | inactive | 77% | inactive | > 50%
7 | COC(=O)[C@@H]1CCC(=O)[C@H]2[C@@]1(C)CC[C@H]1C(=O)O[C@H](c3ccoc3)C[C@]21C | 7.29 | 6.58 | inactive | 124% | inactive | > 50%
8 | COC(=O)[C@@H]1C[C@H](I)C(=O)[C@H]2[C@@]1(C)CC[C@H]1C(=O)O[C@H](c3ccoc3)C[C@]21C | 6.70 | 6.19 | inactive | 92% | inactive | > 50%
9 | COC(=O)[C@@H]1C[C@@H](Br)C2=C3[C@@](C)(C[C@H](c4ccoc4)O2)C(C(=O)O)CC[C@]31C (stereo partly drawn) | < 6.00 | – | inactive | – | inactive | > 50%
10 | COC(=O)[C@@H]1C[C@H](Cl)C(=O)[C@H]2[C@@]1(C)CC[C@H]1C(=O)O[C@H](c3ccoc3)C[C@]21C | < 6.00 | – | inactive | – | inactive | > 50%
11 | COC(=O)[C@@H]1C[C@@H](I)C(=O)[C@H]2[C@@]1(C)CC[C@H]1C(=O)O[C@H](c3ccoc3)C[C@]21C | 6.61 | 6.62 | inactive | 46% | inactive | > 50%
12 | COC(=O)[C@@H]1C[C@@H](Cl)C(=O)[C@H]2[C@@]1(C)CC[C@H]1C(=O)O[C@H](c3ccoc3)C[C@]21C | 6.78 | 6.17 | inactive | 112% | inactive | > 50%
